This note sets out measurements from paper PMC5329948, “Caspase vinyl sulfone small molecule inhibitors prevent axonal degeneration in human neurons and reverse cognitive impairment in Caspase-6-overexpressing mice” (Molecular Neurodegeneration, 2017).

Data set [1] can be described thus: Blood-brain barrier permeability by LC/MS-MS after carotid artery injection. It is filed as in vivo, mouse. The note with it: for concentration at 5 min: male, Casp6-expressing transgenic mice, mouse, in vivo. Here is the method: Only males were used and littermates from each genotype (wild type (WT)/WT, WT/Cre, & knock-in (KI/)Cre) were tested together. The experimenter was blind to genotype and treatment groups. Mice were administered 20 mg/kg NWL-117 or physiological saline (0.9% NaCl) by intraperitoneal injections two times 48 h apart. […] Blood brain barrier permeability of NWL-117 caspase inhibitor: Briefly, 18–22 month old Casp6 mice were anesthetised with isoflurane, warmed with a heating blanket, and their physiological vitals (heart rate, body temperature, and respiration) monitored. The skin over the mouse’s neck was shaved, xylocaine applied, and an incision was made along the midline. Under a surgical microscope, the right carotid artery was gently separated from surrounding tissue. Two suture threads were placed at the proximal and distal ends of the carotid, and a small incision was made along the carotid wall. A micro-catheter (attached to a 1 ml syringe controlled by a micropump) was inserted and pushed to the entrance of the internal carotid artery. The catheter was secured in place using suture thread. NWL-117 (20 mg/kg) was infused via the micro-catheter using a pump set at 50 μL/min (total volume between 64 μL and 130 μL). After 5 min, blood was collected by intra-cardiac puncture, the mouse was perfused through the heart with ice cold saline for 2–3 min. The brain was removed and hippocampi were dissected and frozen on dry ice and stored. Samples were sent to the Biopharmacy platform at the University of Montreal (Quebec, Canada) for liquid chromatography and tandem mass spectrometry analysis. The integrity of the blood-brain barrier was confirmed by injecting 3% Evan’s blue solution in 20 month old Casp6 mice. Mouse cognitive analysis by novel object recognition: Mice were handled during 5 min for one week prior to behavioral tests. Novel object recognition (NOR) task was administered in three phases: habituation, familiarization (pre-exposure), and test phase. For habituation, mice were placed in the NOR box (80 cm x 80 cm, Stoelting Co, Wood Dale, IL, USA) for 5 min. After 24 h, the pre-exposure phase was initiated by allowing the animals to explore two identical objects inside the NOR box. Then, following a 2 h gap, mice were re-introduced to the NOR box which now contained a familiar and a novel object. The position of the novel object was counterbalanced between animals to avoid any bias related to a preference in the location of the new object and the use of potential confounding spatial cues. The objects were located in the middle of the NW and SE quadrants of the box, equidistantly from the box corners and from each other. The mice were placed in the middle of the SW quadrant. Washing the box and objects with 70% ethanol eliminated odour cues. The number of times touching each object was manually recorded, while the total distance, percent time moving, and number of entries into virtual cells were recorded using the HVS 2100 automated video tracking system (HVS Image, Buckingham, UK). Animals whose exploration was considered insufficient to allow recognition (<10 s per object) during the familiarization phase were excluded from analysis. Different object sets were used in the pre- and post-tests. Immunohistochemistry on mouse brain slices: Following behavioural analysis, animals were anaesthetized under isoflurane and perfused intracardially with ice cold saline for 7 min and 4% paraformaldehyde for 20 min. […]

The next data set concerns the target T1, recombinant Caspase-10 (Homo sapiens, UniProt Q92851).
T1 construct: purchased BioVision
As to the kind of experiment: Caspase Inhibitor Drug Screening Kit (BioVision), AEVD-AFC substrate. It is filed as biochemical. The note with it: not active site titrated. How it is done: (§1) The half-maximal inhibitory concentrations (IC50) for NWL inhibitors (Patent publication # WO/2009/140765, WO/2010/133000, and WO/2012/140500) was determined by incubating 0 to 20 μM NWL-117 and NWL-154 with 20 nM of active site-titrated Casp6 in SB at room temperature for 5 minutes. Then, 10 μM Ac-VEID-AFC was added and fluorescence measured for 20 min at 37 °C as described above. New World Laboratories performed the IC50 determination for NWL inhibitors dissolved in dimethyl sulfoxide (DMSO) against recombinant Casp1-10 using the Caspase Inhibitor Drug Screening Kits (BioVision, San Francisco, CA) following the manufacturer’s instructions and the preferred substrates for the caspases (Caspase-1: WAD-AFC, Caspase-2: VDVAD-AFC, Caspase-3: DEVD-AFC, Caspase-4: LEVD-AFC, Caspase-5: WEHD-AFC, Casp6:VEID-AFC, Caspase-7: DEVD-AFC, Caspase-8: IETD-AFC, Caspase-9: LEHD-AFC, Caspase-10: AEVD-AFC). In transfected HCT116 cells, 0 to 100 μM NWL inhibitors were added in the culture media and left on the cells for 2 h. Cells were washed once with 1 mL ice-cold PBS, incubated on ice for 5 min with 200 μL cell lysis buffer (CLB) (50 mM HEPES, 0.1% CHAPS, 0.1 mM EDTA), and gently scraped off. Protein concentrations were determined by Bradford assay (BioRad, Mississauga, ON, CA) by measuring the absorbance at 595 nm using the BioTek Synergy H4 plate reader. […]

The target in the next data set is T2, recombinant Caspase-8 (Homo sapiens, UniProt Q14790).
T2 construct: purchased BioVision
T2 sequence (Q14790 217-479): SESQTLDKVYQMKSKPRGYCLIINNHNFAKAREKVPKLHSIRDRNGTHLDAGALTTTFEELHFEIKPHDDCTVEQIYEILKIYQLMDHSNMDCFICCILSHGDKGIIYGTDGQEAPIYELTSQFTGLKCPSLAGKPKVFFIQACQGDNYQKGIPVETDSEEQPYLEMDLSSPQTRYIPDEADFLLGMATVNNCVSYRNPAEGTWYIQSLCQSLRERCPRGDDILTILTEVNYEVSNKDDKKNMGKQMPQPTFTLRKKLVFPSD
As to the kind of experiment: Caspase Inhibitor Drug Screening Kit (BioVision), IETD-AFC substrate. It is filed as biochemical. The following applies: not active site titrated. Here is the method: as §1

Where [2] appears, read: Casp6 mice, 20 mg/kg carotid artery injection, 5 min, one value per animal, 20 mg/kg.

Values joined by “and” are separate entries in the source; they are usually repeats but may differ in a detail not shown here. Equal entries are not always repeated.

T1 sequence (Q92851 220-521): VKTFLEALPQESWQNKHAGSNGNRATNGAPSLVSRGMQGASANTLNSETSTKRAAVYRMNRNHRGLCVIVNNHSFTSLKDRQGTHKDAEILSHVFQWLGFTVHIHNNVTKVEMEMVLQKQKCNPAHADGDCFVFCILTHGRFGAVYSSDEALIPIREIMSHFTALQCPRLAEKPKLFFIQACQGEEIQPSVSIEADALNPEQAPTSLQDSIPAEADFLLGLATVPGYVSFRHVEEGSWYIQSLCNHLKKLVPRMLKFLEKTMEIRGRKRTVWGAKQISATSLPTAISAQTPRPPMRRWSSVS

As for `CCC(C)[C@H](NC(=O)[C@H](CCC(=O)O)NC(=O)[C@@H](NC(=O)OCc1ccccc1)C(C)C)C(=O)N[C@H](/C=C/S(C)(=O)=O)CC(=O)O` (stereo partly drawn) [NWL-117], the Hippocampus concentration in data set [1] (setting [2]) was 193 nM and 816 nM and 67.9 nM and 356 nM and 879 nM. In data set [1] (setting [2]), the Plasma concentration was 48.521 µM and 3.416 µM and 8.998 µM and 7.408 µM and 25.425 µM. In data set [1] (setting [2]), the “Ratio of [hippocampal]/[plasma]” value is 0.004 and 0.239 and 0.008 and 0.048 and 0.035. Also, the concentration at 5 min in data set [1] was 3.4 to 48 µM; in data set [1] (20 mg/kg), 0.0679 to 0.879 µM. Further, the results for the IC50 at recombinant Caspase-10 and at recombinant Caspase-8 were 0.13 µM and 0.66 µM, respectively.

Consider `CCC(C)[C@H](NC(=O)[C@H](CCC(=O)O)NC(=O)[C@@H](NC(=O)OCc1ccccc1)C(C)C)C(=O)N[C@H](/C=C(\Cl)S(C)(=O)=O)CC(=O)O` (stereo partly drawn) [NWL-154], for which the results for the 50% inhibitory concentration (IC50) at recombinant Caspase-10 and on recombinant Caspase-8 were 0.19 µM and 0.53 µM, respectively.
